What is called IC50 is the concentration that inhibits the measured activity by half.

The structures appear in SMILES notation. A value given as a limit tells only on which side of the number the result lay.

One experiment concerns the target T1, human orexin-1 receptor (Homo sapiens, UniProt O43613).
T1 construct: expressed in transfected cells; host or cells: CHO (Chinese hamster ovary) cells, kept under G418 selection
T1 sequence (O43613 1-425): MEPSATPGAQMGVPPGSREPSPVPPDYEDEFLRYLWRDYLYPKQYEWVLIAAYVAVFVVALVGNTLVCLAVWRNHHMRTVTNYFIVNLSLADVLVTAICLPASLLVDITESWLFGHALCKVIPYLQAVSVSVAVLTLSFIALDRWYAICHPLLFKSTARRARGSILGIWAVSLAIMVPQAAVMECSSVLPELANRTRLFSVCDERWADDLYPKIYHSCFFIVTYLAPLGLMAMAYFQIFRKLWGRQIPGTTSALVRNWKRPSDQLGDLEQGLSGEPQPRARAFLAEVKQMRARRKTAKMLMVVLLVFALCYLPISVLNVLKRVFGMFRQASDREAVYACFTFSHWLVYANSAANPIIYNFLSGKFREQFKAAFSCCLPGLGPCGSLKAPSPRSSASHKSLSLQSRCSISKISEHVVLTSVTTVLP
Kind of experiment: Intracellular calcium measurement (FLIPR Tetra), orexin receptor antagonistic activity, OX1. To be noted: CHO cells expressing human orexin-1 receptor, 3 nM orexin-A, conditions B. Format: cell-based. The procedure, abridged: (§1)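 Recombinant CHO cells expressing human OX1 or OX2, loaded with fluo-4 AM plus probenecid, were preincubated with antagonist 10 min, then stimulated with 3 nM human orexin-A. Peak fluorescence was compared with vehicle; IC50 derived, sometimes normalized to an on-plate reference compound; two pipetting/cell-splitting conditions were used.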
For orientation: Calcium assays in cells follow changes in intracellular calcium, usually with a dye or a luminescent sensor.

In a further experiment the target is T2, human orexin-2 receptor (Homo sapiens, UniProt O43614).
T2 construct: expressed in transfected cells; host or cells: CHO (Chinese hamster ovary) cells, kept under G418 selection
T2 sequence (O43614 1-444): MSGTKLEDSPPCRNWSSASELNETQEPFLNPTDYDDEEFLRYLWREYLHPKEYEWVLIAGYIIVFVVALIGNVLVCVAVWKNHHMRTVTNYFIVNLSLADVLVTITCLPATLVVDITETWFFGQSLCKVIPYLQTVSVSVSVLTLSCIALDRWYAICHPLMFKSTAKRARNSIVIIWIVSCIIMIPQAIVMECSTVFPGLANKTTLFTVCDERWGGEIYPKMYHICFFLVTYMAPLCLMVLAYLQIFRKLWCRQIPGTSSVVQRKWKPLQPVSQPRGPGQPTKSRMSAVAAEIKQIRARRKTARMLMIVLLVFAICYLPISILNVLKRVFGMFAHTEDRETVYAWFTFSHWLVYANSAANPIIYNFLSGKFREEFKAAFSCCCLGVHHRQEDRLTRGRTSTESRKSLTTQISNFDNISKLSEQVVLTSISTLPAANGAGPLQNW
Nature of the experiment: Intracellular calcium measurement (FLIPR Tetra), orexin receptor antagonistic activity, OX2. It counts as cell-based. To be noted: CHO cells expressing human orexin-2 receptor, 3 nM orexin-A, conditions B. The procedure, abridged: as §1

[1] abbreviates: normalized (*) using IC50 of on-plate reference compound.

As to `COc1ccc(-c2sc(C)nc2C(=O)N(CCc2c[nH]c3ccc(F)cc23)CC(F)F)cn1` [Example 307, 5-(6-Methoxy-pyridin-3-yl)-2-methyl-thiazole-4-carboxylic acid (2,2-difluoro-ethyl)-[2-(5-fluoro-1H-indol-3-yl)-ethyl]-amide], the results for the IC50 on human orexin-1 receptor (setting [1]) and on human orexin-2 receptor (setting [1]) were 345 nM and 20 nM, respectively.

Take `COc1ccc(-c2sc(C)nc2C(=O)N(CCO)CCc2c[nH]c3ccc(F)cc23)cn1` [Example 308, 5-(6-Methoxy-pyridin-3-yl)-2-methyl-thiazole-4-carboxylic acid [2-(5-fluoro-1H-indol-3-yl)-ethyl]-(2-hydroxy-ethyl)-amide]: the IC50 amounted to 357 nM on human orexin-1 receptor (setting [1]) and 25 nM at human orexin-2 receptor (setting [1]).

Regarding `CCCN(CCc1c[nH]c2ccc(F)cc12)C(=O)c1ncccc1-c1ccc(OC)nc1` [Example 311], the IC50 on human orexin-1 receptor (setting [1]) is 147 nM; on human orexin-2 receptor (setting [1]), 16 nM.

As for `COc1ccc(-c2cccnc2C(=O)N(CCc2c[nH]c3ccc(F)cc23)CC(F)(F)F)cn1` [Example 312], the IC50 came out at 346 nM on human orexin-1 receptor (setting [1]) and 76 nM at human orexin-2 receptor (setting [1]).

With `COc1ccc(-c2cccnc2C(=O)N(CCc2c[nH]c3ccc(F)cc23)CC(N)=O)cn1` [Example 313, 6′-Methoxy-[3,3′]bipyridinyl-2-carboxylic acid carbamoylmethyl-[2-(5-fluoro-1H-indol-3-yl)-ethyl]-amide], the IC50 at human orexin-1 receptor (setting [1]) was 5260 nM; on human orexin-2 receptor (setting [1]), 526 nM.

As for `COC(=O)CN(CCc1c[nH]c2ccc(F)cc12)C(=O)c1ncccc1-c1ccc(OC)nc1` [Example 315], the figures for the IC50 on human orexin-1 receptor (setting [1]) and on human orexin-2 receptor (setting [1]) were 847 nM and 116 nM, respectively.

Turning to `COc1ccc(-c2cccnc2C(=O)N(CCc2c[nH]c3ccc(F)cc23)CC(F)F)cn1` [Example 317, 6′-Methoxy-[3,3′]bipyridinyl-2-carboxylic acid (2,2-difluoro-ethyl)-[2-(5-fluoro-1H-indol-3-yl)-ethyl]-amide], the IC50 at human orexin-1 receptor (setting [1]) is 760 nM; at human orexin-2 receptor (setting [1]), 162 nM.

For the compound `COc1ccc(-c2cccnc2C(=O)N(CCO)CCc2c[nH]c3ccc(F)cc23)cn1` [Example 318, 6′-Methoxy-[3,3′]bipyridinyl-2-carboxylic acid [2-(5-fluoro-1H-indol-3-yl)-ethyl]-(2-hydroxy-ethyl)-amide], the IC50 at human orexin-1 receptor (setting [1]) was over 5420 nM; at human orexin-2 receptor (setting [1]), 848 nM.

As for `COc1ccc2[nH]cc(CCN(CC3CC3)C(=O)c3nccnc3-c3ccccc3)c2c1` [Example 322, 3-Phenyl-pyrazine-2-carboxylic acid cyclopropylmethyl-[2-(5-methoxy-1H-indol-3-yl)-ethyl]-amide], the IC50 was 190 nM on human orexin-1 receptor (setting [1]) and 24 nM on human orexin-2 receptor (setting [1]).

In the case of `Cc1ccc2[nH]cc(CCN(CC3CC3)C(=O)c3nccnc3-c3ccccc3)c2c1` [Example 324, 3-Phenyl-pyrazine-2-carboxylic acid cyclopropylmethyl-[2-(5-methyl-1H-indol-3-yl)-ethyl]-amide], the IC50 at human orexin-1 receptor (setting [1]) is 77 nM; at human orexin-2 receptor (setting [1]), 8 nM.

On to `Cc1cccc2c(CCN(CC3CC3)C(=O)c3nccnc3-c3ccccc3)c[nH]c12` [Example 326, 3-Phenyl-pyrazine-2-carboxylic acid cyclopropylmethyl-[2-(7-methyl-1H-indol-3-yl)-ethyl]-amide], for which the IC50 on human orexin-1 receptor (setting [1]) worked out at 76 nM; at human orexin-2 receptor (setting [1]), 8 nM.

Take `Cc1ccc(-c2nccnc2C(=O)N(CCc2cn(C)c3ccccc23)CC2CC2)cc1C` [Example 330, 3-(3,4-Dimethyl-phenyl)-pyrazine-2-carboxylic acid cyclopropylmethyl-[2-(1-methyl-1H-indol-3-yl)-ethyl]-amide]: the IC50 is 18 nM at human orexin-1 receptor (setting [1]) and 8 nM at human orexin-2 receptor (setting [1]).

`Cc1ccc(-c2nccnc2C(=O)N(CCc2c[nH]c3cc(Cl)ccc23)CC2CC2)cc1C` [Example 331, 3-(3,4-Dimethyl-phenyl)-pyrazine-2-carboxylic acid [2-(6-chloro-1H-indol-3-yl)-ethyl]-cyclopropylmethyl-amide]: the IC50 on human orexin-1 receptor (setting [1]) amounted to 62 nM; at human orexin-2 receptor (setting [1]) it was 22 nM.

For `Cc1ccc(-c2nccnc2C(=O)N(CCc2c[nH]c3c(C)cccc23)CC2CC2)cc1C` [Example 337, 3-(3,4-Dimethyl-phenyl)-pyrazine-2-carboxylic acid cyclopropylmethyl-[2-(7-methyl-1H-indol-3-yl)-ethyl]-amide], the figures for the IC50 at human orexin-1 receptor (setting [1]) and at human orexin-2 receptor (setting [1]) were 16 nM and 5 nM, respectively.

As for `Cc1ccc(-c2nccnc2C(=O)N(CCc2c[nH]c3c(F)cccc23)CC2CC2)cc1C` [Example 340, 3-(3,4-Dimethyl-phenyl)-pyrazine-2-carboxylic acid cyclopropylmethyl-[2-(7-fluoro-1H-indol-3-yl)-ethyl]-amide], the IC50 was 99 nM on human orexin-1 receptor (setting [1]) and 53 nM on human orexin-2 receptor (setting [1]).

For `COc1ccc(-c2sc(C)nc2C(=O)N(CCc2cn(C)c3ccccc23)CC2CC2)cn1` [Example 341, 5-(6-Methoxy-pyridin-3-yl)-2-methyl-thiazole-4-carboxylic acid cyclopropylmethyl-[2-(1-methyl-1H-indol-3-yl)-ethyl]-amide], the IC50 came out at 18 nM on human orexin-1 receptor (setting [1]) and 36 nM at human orexin-2 receptor (setting [1]).

As to `COc1ccc(-c2sc(C)nc2C(=O)N(CCc2c[nH]c3cc(F)ccc23)CC2CC2)cn1` [Example 350, 5-(6-Methoxy-pyridin-3-yl)-2-methyl-thiazole-4-carboxylic acid cyclopropylmethyl-[2-(6-fluoro-1H-indol-3-yl)-ethyl]-amide], the IC50 on human orexin-1 receptor (setting [1]) worked out at 4 nM; on human orexin-2 receptor (setting [1]) it was 17 nM.

Regarding `COc1ccc(-c2cccnc2C(=O)N(CCc2cn(C)c3ccccc23)CC2CC2)cn1` [Example 352, 6′-Methoxy-[3,3′]bipyridinyl-2-carboxylic acid cyclopropylmethyl-[2-(1-methyl-1H-indol-3-yl)-ethyl]-amide], the IC50 at human orexin-1 receptor (setting [1]) amounted to 20 nM; on human orexin-2 receptor (setting [1]), 37 nM.

Consider `COc1ccc(-c2cccnc2C(=O)N(CCc2c[nH]c3cc(Cl)ccc23)CC2CC2)cn1` [Example 353], for which the 50% inhibitory concentration (IC50) on human orexin-1 receptor (setting [1]) turned out to be 87 nM; on human orexin-2 receptor (setting [1]), 23 nM.

Regarding `COc1ccc(-c2cccnc2C(=O)N(CCc2c[nH]c3ccc(C)cc23)CC2CC2)cn1` [Example 357], the IC50 at human orexin-1 receptor (setting [1]) came to 14 nM; at human orexin-2 receptor (setting [1]) it was 30 nM.

Turning to `COc1ccc(-c2cccnc2C(=O)N(CCc2c[nH]c3cc(F)ccc23)CC2CC2)cn1` [Example 361], the IC50 at human orexin-1 receptor (setting [1]) turned out to be 35 nM; on human orexin-2 receptor (setting [1]), 60 nM.

Take `COc1ccc2nc(CCN(CC3CC3)C(=O)c3ncccc3-c3ccc(OC)nc3)[nH]c2c1` [Example 371, 6′-Methoxy-[3,3′]bipyridinyl-2-carboxylic acid cyclopropylmethyl-[2-(6-methoxy-1H-benzoimidazol-2-yl)-ethyl]-amide]: the IC50 at human orexin-1 receptor (setting [1]) worked out at 1860 nM; at human orexin-2 receptor (setting [1]), 89 nM.

With `Cc1ccc(-c2nccnc2C(=O)N(CCc2nc3cc(C)c(C)cc3[nH]2)CC2CC2)cc1C` [Example 374, 3-(3,4-Dimethyl-phenyl)-pyrazine-2-carboxylic acid cyclopropylmethyl-[2-(5,6-dimethyl-1H-benzoimidazol-2-yl)-ethyl]-amide], the 50% inhibitory concentration (IC50) at human orexin-1 receptor (setting [1]) was determined as 102 nM; at human orexin-2 receptor (setting [1]), 35 nM.

`Cc1ccc(-c2sc(N(C)C)nc2C(=O)N(CCc2nc3cc(C)c(C)cc3[nH]2)CC2CC2)cc1C` [Example 377, 2-Dimethylamino-5-(3,4-dimethyl-phenyl)-thiazole-4-carboxylic acid cyclopropylmethyl-[2-(5,6-dimethyl-1H-benzoimidazol-2-yl)-ethyl]-amide]: the IC50 worked out at 114 nM at human orexin-1 receptor (setting [1]) and 261 nM on human orexin-2 receptor (setting [1]).

Take `COc1ccc(-c2sc(C)nc2C(=O)N(CCc2c[nH]c3cc4c(cc23)OCO4)CC2CC2)cn1` [Example 382, 5-(6-Methoxy-pyridin-3-yl)-2-methyl-thiazole-4-carboxylic acid cyclopropylmethyl-[2-(5H-[1,3]dioxolo[4,5-f]indol-7-yl)-ethyl]-amide]: the half-inhibitory concentration (IC50) is 427 nM on human orexin-1 receptor (setting [1]) and 12 nM on human orexin-2 receptor (setting [1]).

Regarding `COc1ccc(CCN(CC2CC2)C(=O)c2ccncc2-c2cccc(C)c2)cc1OC` [Example 386, N-Cyclopropylmethyl-N-[2-(3,4-dimethoxy-phenyl)-ethyl]-3-m-tolyl-isonicotinamide], the figures for the IC50 on human orexin-1 receptor and at human orexin-2 receptor were 234 nM and 5 nM, respectively.

For the origin of these results see patent US20110212968A1, “PHENETHYLAMIDE DERIVATIVES AND THEIR HETEROCYCLIC ANALOGUES” (priority 2008, published 2011).
